Data reported in the NIST ThermoML archive (doi:10.1021/je901067c).
Numbers after ± are expanded uncertainties.

Assays:
[1] = refractive index (Na D-line) (dimensionless); conditions: 101.33 kPa, Liquid, Standard Abbe refractometry
[2] = 101 kPa, Liquid; for viscosity: Capillary tube (Ostwald / Ubbelohde) method
[3] = xn = mol fraction of the nth substance listed; conditions: 101 kPa, Liquid; for viscosity: Capillary tube (Ostwald / Ubbelohde) method
[4] = refractive index (Na D-line) (dimensionless); xn = mol fraction of the nth substance listed; conditions: 101 kPa, Liquid, Standard Abbe refractometry

Compound | refractive index ([1]; 298.15 K) | refractive index ([1]; 308.15 K) | refractive index ([1]; 318.15 K) | mass density ([2]; 298.15 K) [kg/m3] | viscosity ([2]; 298.15 K) [mPa·s] | mass density ([2]; 308.15 K) [kg/m3] | viscosity ([2]; 308.15 K) [mPa·s] | mass density ([2]; 318.15 K) [kg/m3] | viscosity ([2]; 318.15 K) [mPa·s] | further results
CCC(O)CC [3-pentanol] | 1.4047 ± 0.0009 | 1.4029 ± 0.0009 | 1.3981 ± 0.0009 | 815.79 ± 0.54 | 4.625 ± 0.034 | 806.91 ± 0.56 | 2.864 ± 0.022 | 797.66 ± 0.57 | 1.902 ± 0.015 | –
CCC(C)=O [butanone] | 1.375 ± 0.0009 | 1.37 ± 0.0009 | 1.3657 ± 0.0009 | 799.76 ± 0.56 | 0.391 ± 0.005 | 789.21 ± 0.58 | 0.361 ± 0.005 | 778.52 ± 0.59 | 0.334 ± 0.005 | –
CCC(C)=O [butanone] + CCC(O)CC | – | – | – | – | – | – | – | – | – | viscosity ([3]; 298.15 K, x1 = 1): 0.391 ± 0.005 mPa·s; mass density ([3]; 298.15 K, x1 = 1): 799.76 ± 0.56 kg/m3; viscosity ([3]; 308.15 K, x1 = 1): 0.361 ± 0.005 mPa·s; mass density ([3]; 308.15 K, x1 = 1): 789.21 ± 0.58 kg/m3; viscosity ([3]; 318.15 K, x1 = 1): 0.334 ± 0.0049 mPa·s; mass density ([3]; 318.15 K, x1 = 1): 778.52 ± 0.59 kg/m3; refractive index ([4]; 298.15 K, x1 = 1): 1.375 ± 0.0009; refractive index ([4]; 308.15 K, x1 = 1): 1.37 ± 0.0009; refractive index ([4]; 318.15 K, x1 = 1): 1.3657 ± 0.0009
CCC(C)=O [butanone] + CCCC(C)O | – | – | – | – | – | – | – | – | – | viscosity ([3]; 298.15 K, x1 = 1): 0.391 ± 0.005 mPa·s; mass density ([3]; 298.15 K, x1 = 1): 799.76 ± 0.56 kg/m3; viscosity ([3]; 308.15 K, x1 = 1): 0.361 ± 0.005 mPa·s; mass density ([3]; 308.15 K, x1 = 1): 789.21 ± 0.58 kg/m3; viscosity ([3]; 318.15 K, x1 = 1): 0.334 ± 0.0049 mPa·s; mass density ([3]; 318.15 K, x1 = 1): 778.52 ± 0.59 kg/m3; refractive index ([4]; 298.15 K, x1 = 1): 1.375 ± 0.0009; refractive index ([4]; 308.15 K, x1 = 1): 1.37 ± 0.0009; refractive index ([4]; 318.15 K, x1 = 1): 1.3657 ± 0.0009
CCCCCO [pentan-1-ol] | 1.4068 ± 0.0009 | 1.4031 ± 0.0009 | 1.3996 ± 0.0009 | 810.85 ± 0.55 | 3.54 ± 0.026 | 803.45 ± 0.56 | 2.658 ± 0.02 | 795.9 ± 0.57 | 2.288 ± 0.017 | –
CCCCCO [pentan-1-ol] + CCC(C)=O | – | – | – | – | – | – | – | – | – | viscosity ([3]; 298.15 K, x2 = 0): 3.54 ± 0.026 mPa·s; mass density ([3]; 298.15 K, x2 = 0): 810.85 ± 0.55 kg/m3; viscosity ([3]; 308.15 K, x2 = 0): 2.658 ± 0.02 mPa·s; mass density ([3]; 308.15 K, x2 = 0): 803.45 ± 0.56 kg/m3; viscosity ([3]; 318.15 K, x2 = 0): 2.288 ± 0.017 mPa·s; mass density ([3]; 318.15 K, x2 = 0): 795.9 ± 0.57 kg/m3; refractive index ([4]; 298.15 K, x2 = 0): 1.4068 ± 0.0009; refractive index ([4]; 308.15 K, x2 = 0): 1.4031 ± 0.0009; refractive index ([4]; 318.15 K, x2 = 0): 1.3996 ± 0.0009
CCCC(C)O (stereo not drawn) [pentan-2-ol] | 1.4032 ± 0.0009 | 1.399 ± 0.0009 | 1.395 ± 0.0009 | 805.3 ± 0.56 | 3.478 ± 0.026 | 797 ± 0.57 | 2.361 ± 0.018 | 788.37 ± 0.58 | 1.772 ± 0.014 | –
